Reference: patent US20120252796A1, “COMPOUNDS FOR THE TREATMENT OF DYSLIPIDEMIA AND RELATED DISEASES” (priority 2009, published 2012)

Molecular target: PCSK9 (Homo sapiens, UniProt Q8NBP7)
Experiment: PCSK9-LDLR in vitro Binding Assay (ELISA)
Conditions: for inhibition at 5 µM: Concentration 5 μM
Protocol: The PCSK9-LDLR in vitro Binding Assay is a quantitative solid phase binding assay between PCSK9 and recombinant LDLR. Plates were pre-coated with a recombinant LDLR-AB domain, which binds PCSK9. Test compound at different concentration was added to the PCSK9 and added to LDLR immobilized on the wells. The amount of bound PCSK9 is measured by binding it with biotinylated anti-His-tag monoclonal antibody, followed by binding with horseradish peroxidase conjugated streptavidin substrate. The color was quantified by ELISA reader at […] which reflects the relative amount of PCSK9 that binds to LDLR in presence and absence of the inhibitor. EC50 values were calculated by nonlinear regression analysis using graph pad prism software. Each concentration point represents values in duplicates.

Sequence of PCSK9 (Q8NBP7 153-692): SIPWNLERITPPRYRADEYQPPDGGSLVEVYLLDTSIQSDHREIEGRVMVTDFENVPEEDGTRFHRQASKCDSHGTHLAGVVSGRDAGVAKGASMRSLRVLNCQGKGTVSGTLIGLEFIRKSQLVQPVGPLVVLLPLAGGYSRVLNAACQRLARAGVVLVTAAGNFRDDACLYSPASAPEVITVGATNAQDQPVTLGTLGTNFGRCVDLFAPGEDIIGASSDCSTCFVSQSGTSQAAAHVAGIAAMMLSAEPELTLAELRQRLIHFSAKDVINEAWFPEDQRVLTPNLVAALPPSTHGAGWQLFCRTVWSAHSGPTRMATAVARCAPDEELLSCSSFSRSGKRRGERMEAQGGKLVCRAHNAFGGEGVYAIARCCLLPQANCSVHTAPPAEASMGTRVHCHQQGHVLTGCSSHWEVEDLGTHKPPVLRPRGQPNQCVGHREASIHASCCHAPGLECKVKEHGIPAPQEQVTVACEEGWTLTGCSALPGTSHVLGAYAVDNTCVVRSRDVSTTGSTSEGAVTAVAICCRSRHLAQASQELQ
Sequence of PCSK9 (Q8NBP7 31-152 partner limits assumed): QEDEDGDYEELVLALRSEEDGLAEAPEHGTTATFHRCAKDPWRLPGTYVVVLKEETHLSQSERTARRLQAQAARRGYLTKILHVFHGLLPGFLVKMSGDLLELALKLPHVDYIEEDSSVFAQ

## Cc1oc(-c2ccccc2)nc1CC1COC(C)(C(=O)NOCc2ccccc2)OC1 (stereo not drawn) [Example 1, N-(benzyloxy)-2-methyl-5-((5-methyl-2-phenyloxazol-4-yl)methyl)-1,3-dioxane-2-carboxamide]
  inhibition at 5 µM: 25%
Concentration 10 μM
  inhibition at 10 µM: 30%
Concentration 100 μM
  inhibition at 100 µM: 32%

## Cc1oc(-c2ccccc2)nc1CC1COC(C)(C(=O)NCC2CCOCC2)OC1 (stereo not drawn) [Example 9, 2-methyl-5-c-((5-methyl-2-phenyloxazol-4-yl)methyl)-N—((tetrahydro-2H-pyran-4-yl)methyl)-1,3-dioxane-2-carboxamide]
Concentration 10 μM
  % Inhibition PCSK9: 15%
Concentration 100 μM
  % Inhibition PCSK9: 12%

## Cc1oc(-c2ccccc2)nc1CC1COC(C)(C(=O)N2CCOCC2)OC1 (stereo not drawn) [Example 11, (2-methyl-5-((5-methyl-2-phenyloxazol-4-yl)methyl)-1,3-dioxan-2-yl)(morpholino)methanone]
  inhibition at 5 µM: 20%
Concentration 10 μM
  inhibition at 10 µM: 30%
Concentration 100 μM
  inhibition at 100 µM: 44%

## Cc1oc(-c2ccccc2)nc1CC1COC(C)(C(=O)N2CCCCC2)OC1 (stereo not drawn) [Example 15, (2-methyl-5-c-((5-methyl-2-phenyloxazol-4-yl)methyl)-1,3-dioxan-2-yl)(piperidin-1-yl)methanone]
Concentration 10 μM
  % Inhibition PCSK9: 11%
Concentration 100 μM
  % Inhibition PCSK9: 4%

## Cc1oc(-c2ccccc2)nc1CC1COC(C)(C(=O)N2CCSCC2)OC1 (stereo not drawn) [Example 16, (2-methyl-5-c-((5-methyl-2-phenyloxazol-4-yl)methyl)-1,3-dioxan-2-yl)(thiomorpholino)methanone]
Concentration 100 μM
  % Inhibition PCSK9: 12%

## Cc1oc(-c2ccccc2)nc1CC1COC(C)(C(=O)N2CCS(=O)(=O)CC2)OC1 (stereo not drawn) [Example 17, (1,1-dioxidothiomorpholino)(2-methyl-5-c-((5-methyl-2-phenyloxazol-4-yl)methyl)-1,3-dioxan-2-yl)methanone]
Concentration 100 μM
  % Inhibition PCSK9: 15%

## Cc1oc(-c2ccccc2)nc1CC1COC(C)(C(=O)NCC(=O)N2CCOCC2)OC1 (stereo not drawn) [Example 18, 2-methyl-5-((5-methyl-2-phenyloxazol-4-yl)methyl)-N-(2-morpholino-2-oxoethyl)-1,3-dioxane-2-carboxamide]
Concentration 1 μM
  inhibition at 1 µM: 40%
Concentration 100 μM
  inhibition at 100 µM: 39%

## Cc1oc(-c2ccccc2)nc1CC1COC(C)(C(=O)NCC(=O)N2CCCCC2)OC1 (stereo not drawn) [Example 22, 2-methyl-5-c-((5-methyl-2-phenyloxazol-4-yl)methyl)-N-(2-oxo-2-(piperidin-1-yl)ethyl)-1,3-dioxane-2-carboxamide]
Concentration 10 μM
  % Inhibition PCSK9: 25%
Concentration 100 μM
  % Inhibition PCSK9: 17%

## Cc1oc(-c2ccccc2)nc1CC1COC(C)(C(=O)NCC(=O)N2CCSCC2)OC1 (stereo not drawn) [Example 23, 2-methyl-5-c-((5-methyl-2-phenyloxazol-4-yl)methyl)-N-(2-oxo-2-thiomorpholinoethyl)-1,3-dioxane-2-carboxamide]
Concentration 10 μM
  % Inhibition PCSK9: 21%
Concentration 100 μM
  % Inhibition PCSK9: 22%

## Cc1oc(-c2ccccc2)nc1CC1COC(C)(C(=O)NCC(=O)NCC2CCOCC2)OC1 (stereo not drawn) [Example 25, 2-methyl-5-c-((5-methyl-2-phenyloxazol-4-yl)methyl)-N-(2-oxo-2-(((tetrahydro-2H-pyran-4-yl)methyl)amino)methyl)-1,3-dioxane-2-carboxamide]
Concentration 10 μM
  % Inhibition PCSK9: 15%
Concentration 100 μM
  % Inhibition PCSK9: 16%

## Cc1oc(-c2ccccc2)nc1CC1COC(C)(C(=O)NCCC(=O)N2CCS(=O)(=O)CC2)OC1 (stereo not drawn) [Example 29, N-(3-(1,1-dioxidothiomorpholino)-3-oxopropyl)-2-methyl-5-c-((5-methyl-2-phenyloxazol-4-yl)methyl)-1,3-dioxane-2-carboxamide]
Concentration 10 μM
  % Inhibition PCSK9: 8%
Concentration 100 μM
  % Inhibition PCSK9: 12%

## Cc1oc(-c2ccccc2)nc1CCC1COC(C)(C(=O)NO)OC1 (stereo not drawn) [Example 35, N-hydroxy-2-methyl-5-c-(2-(5-methyl-2-phenyloxazol-4-yl)ethyl)-1,3-dioxane-2-carboxamide]
Concentration 1 μM, 1 µM
  % Inhibition PCSK9: 18%
Concentration 10 μM
  % Inhibition PCSK9: 19%
Concentration 100 μM, 100 µM
  % Inhibition PCSK9: 19%

## Cc1oc(-c2ccccc2)nc1CCC1COC(C)(C(=O)NO)OC1 (stereo not drawn) [Example 36, N-hydroxy-2-methyl-5t-(2-(5-methyl-2-phenyloxazol-4-yl)ethyl)-1,3-dioxane-2-carboxamide]
Concentration 1 μM, 1 µM
  % Inhibition PCSK9: 10%
Concentration 100 μM, 100 µM
  % Inhibition PCSK9: 24%

## Cc1oc(-c2ccccc2)nc1CCC1COC(C)(C(=O)NCC2CCOCC2)OC1 (stereo not drawn) [Example 38, 2-methyl-5-c-(2-(5-methyl-2-phenyloxazol-4-yl)ethyl)-N—((tetrahydro-2H-pyran-4-yl)methyl)-1,3-dioxane-2-carboxamide]
Concentration 10 μM
  % Inhibition PCSK9: 14%
Concentration 100 μM
  % Inhibition PCSK9: 21%

## Cc1oc(-c2ccccc2)nc1CCC1COC(C)(C(=O)N2CCOCC2)OC1 (stereo not drawn) [Example 41, (2-methyl-5-c-(2-(5-methyl-2-phenyloxazol-4-yl)ethyl)-1,3-dioxan-2-yl)(morpholino)methanone]
Concentration 10 μM
  % Inhibition PCSK9: 12%
Concentration 100 μM
  % Inhibition PCSK9: 19%

## Cc1oc(-c2ccccc2)nc1CCC1COC(C)(C(=O)N2CCN(C)CC2)OC1 (stereo not drawn) [Example 43, (2-methyl-5-c-(2-(5-methyl-2-phenyloxazol-4-yl)ethyl)-1,3-dioxan-2-yl)(4-methylpiperazin-1-yl)methanone]
Concentration 10 μM
  % Inhibition PCSK9: 8%
Concentration 100 μM
  % Inhibition PCSK9: 10%

## Cc1oc(-c2ccccc2)nc1CCC1COC(C)(C(=O)N2CCSCC2)OC1 (stereo not drawn) [Example 45, (2-methyl-5-c-(2-(5-methyl-2-phenyloxazol-4-yl)ethyl)-1,3-dioxan-2-yl)(thiomorpholino)methanone]
Concentration 10 μM
  % Inhibition PCSK9: 11%
Concentration 100 μM
  % Inhibition PCSK9: 18%

## Cc1oc(-c2ccccc2)nc1CCC1COC(C)(C(=O)N2CCS(=O)(=O)CC2)OC1 (stereo not drawn) [Example 46, (1,1-dioxidothiomorpholino)(2-methyl-5-c-(2-(5-methyl-2-phenyloxazol-4-yl)ethyl)-1,3-dioxan-2-yl)methanone]
Concentration 10 μM
  % Inhibition PCSK9: 12%
Concentration 100 μM
  % Inhibition PCSK9: 18%

## Cc1oc(-c2ccccc2)nc1CCC1COC(C)(C(=O)NCC(=O)N2CCOCC2)OC1 (stereo not drawn) [Example 47, 2-methyl-5-(2-(5-methyl-2-phenyloxazol-4-yl)ethyl)-N-(2-morpholino-2-oxoethyl)-1,3-dioxane-2-carboxamide]
Concentration 1 μM
  inhibition at 1 µM: 38%
Concentration 10 μM
  inhibition at 10 µM: 38%
Concentration 100 μM
  inhibition at 100 µM: 42%

## Cc1oc(-c2ccccc2)nc1CCC1COC(C)(C(=O)NCC(=O)N2CCOCC2)OC1 (stereo not drawn) [Example 49, 2-methyl-5-t-(2-(5-methyl-2-phenyloxazol-4-yl)ethyl)-N-(2-morpholino-2-oxoethyl)-1,3-dioxane-2-carboxamide]
Concentration 100 μM
  % Inhibition PCSK9: 17%

## Cc1oc(-c2ccccc2)nc1CCC1COC(C)(C(=O)NCC(=O)N2CCN(C)CC2)OC1 (stereo not drawn) [Example 51, 2-methyl-5-c-(2-(5-methyl-2-phenyloxazol-4-yl)ethyl)-N-(2-(4-methylpiperazin-1-yl)-2-oxoethyl)-1,3-dioxane-2-carboxamide]
Concentration 10 μM
  % Inhibition PCSK9: 10%
Concentration 100 μM
  % Inhibition PCSK9: 35%

## Cc1oc(-c2ccccc2)nc1CCC1COC(C)(C(=O)NCC(=O)N2CCSCC2)OC1 (stereo not drawn) [Example 52, 2-methyl-5-c-(2-(5-methyl-2-phenyloxazol-4-yl)ethyl)-N-(2-oxo-2-thiomorpholinoethyl)-1,3-dioxane-2-carboxamide]
Concentration 10 μM
  % Inhibition PCSK9: 20%
Concentration 100 μM
  % Inhibition PCSK9: 32%

## CC(=O)C(Cc1ccccc1)NC(=O)C1(C)OCC(CCc2nc(-c3ccccc3)oc2C)CO1 (stereo not drawn) [Example 54, 2-methyl-5-(2-(5-methyl-2-phenyloxazol-4-yl)ethyl)-N-(3-oxo-1-phenylbutan-2-yl)-1,3-dioxane-2-carboxamide]
Concentration 10 μM
  inhibition at 10 µM: 21%
Concentration 100 μM
  inhibition at 100 µM: 29%

## CC(=O)C(Cc1ccccc1)NC(=O)CNC(=O)C1(C)OCC(CCc2nc(-c3ccccc3)oc2C)CO1 (stereo not drawn) [Example 55, 2-methyl-5-(2-(5-methyl-2-phenyloxazol-4-yl)ethyl)-N-(2-oxo-2-((3-oxo-1-phenylbutan-2-yl)amino)ethyl)-1,3-dioxane-2-carboxamide]
Concentration 10 μM
  inhibition at 10 µM: 23%
Concentration 100 μM
  inhibition at 100 µM: 30%

## Cc1ccc(-c2nc(CC3COC(C)(C(=O)NOCc4ccccc4)OC3)c(C)o2)cc1 (stereo not drawn) [Example 56, N-benzyloxy-2-methyl-5-((5-methyl-2-(p-tolyl)oxazol-4-yl)methyl)-1,3-dioxane-2-carboxamide]
  inhibition at 5 µM: 6%
Concentration 10 μM
  inhibition at 10 µM: 17%

## Cc1ccc(-c2nc(CC3COC(C)(C(=O)NO)OC3)c(C)o2)cc1 (stereo not drawn) [Example 60, N-hydroxy-2-methyl-5-c-((5-methyl-2-(p-tolyl)oxazol-4-yl)methyl)-1,3-dioxane-2-carboxamide]
Concentration 1 μM
  % Inhibition PCSK9: 28%
Concentration 10 μM, 10 µM
  % Inhibition PCSK9: 26%
Concentration 100 μM, 100 µM
  % Inhibition PCSK9: 70%

## Cc1ccc(-c2nc(CC3COC(C)(C(=O)NO)OC3)c(C)o2)cc1 (stereo not drawn) [Example 61, N-hydroxy-2-methyl-5-t-((5-methyl-2-(p-tolyl)oxazol-4-yl)methyl)-1,3-dioxane-2-carboxamide]
Concentration 10 μM, 10 µM
  % Inhibition PCSK9: 21%
Concentration 100 μM, 100 µM
  % Inhibition PCSK9: 32%

## Cc1ccc(-c2nc(CC3COC(C)(C(=O)NCC4CCOCC4)OC3)c(C)o2)cc1 (stereo not drawn) [Example 62, 2-methyl-5-((5-methyl-2-(p-tolyl)oxazol-4-yl)methyl)-N—((tetrahydro-2H-pyran-4-yl)methyl)-1,3-dioxane-2-carboxamide]
Concentration 0.1 μM
  inhibition at 0.1 µM: 17%
Concentration 1 μM
  inhibition at 1 µM: 21%
Concentration 10 μM
  inhibition at 10 µM: 14%
Concentration 100 μM
  inhibition at 100 µM: 41%

## Cc1ccc(-c2nc(CC3COC(C)(C(=O)N4CCOCC4)OC3)c(C)o2)cc1 (stereo not drawn) [Example 65, (2-methyl-5-((5-methyl-2-(p-tolyl)oxazol-4-yl)methyl)-1,3-dioxan-2-yl)(morpholino)methanone]
Concentration 1 μM
  inhibition at 1 µM: 11%
Concentration 10 μM
  inhibition at 10 µM: 26%
Concentration 100 μM
  inhibition at 100 µM: 35%
